US20160184340A1, “THE USE OF SPINOSYNS AND SPINOSYN COMPOSITIONS AS LOCAL ANESTHETICS AND AS ANTIARRHYTHMIC AGENTS” (Entarco SA, priority 2010, published 2016)
Several values for one entry are separate records, joined by “and”; a condition that tells them apart may be missing. Identical values can stand only once. Counter-ions that a name gives are not always drawn. Like-named read-outs stand apart in the source and are kept apart here.

What was measured:
[1] = test system: male Sprague-Dawley rats; assay: Pain response testing, foot pinch test (Example 1, comparison with Lidocaine); assay type: in vivo; settings: for Foot Pinch Test average per animal, round 1: group average (1 = no anesthetic effect, 0 = effect); for Foot Pinch Test average per animal, round 1 / Foot Pinch Test Results Round 1: 45 minutes post dose; for Foot Pinch Test average per animal, round 1 / Foot Pinch Test average per animal, round 2 / Foot Pinch Test average per animal, round 3 / Foot Pinch Test average per animal, round 4 / Foot Pinch Test average per animal, round 5 / Foot Pinch Test average per animal, round 6: SQ 1.33 mL/kg (spinosad 12 mg/kg; Lidocaine 26.6 mg/kg); for Foot Pinch Test average per animal, round 2 / Foot Pinch Test average per animal, round 3 / Foot Pinch Test average per animal, round 4 / Foot Pinch Test average per animal, round 5 / Foot Pinch Test average per animal, round 6: group average; for Foot Pinch Test average per animal, round 2 / Foot Pinch Test Results Round 2: 70 minutes post dose; for Foot Pinch Test average per animal, round 3 / Foot Pinch Test Results Round 3: 1.5 hour post dose; for Foot Pinch Test average per animal, round 4 / Foot Pinch Test Results Round 4: 2 hours post dose; for Foot Pinch Test average per animal, round 5 / Foot Pinch Test Results Round 5: 2.5 hours post dose; for Foot Pinch Test average per animal, round 6 / Foot Pinch Test Results Round 6: 4 hours post dose; for Foot Pinch Test Results Round 1 / Foot Pinch Test Results Round 2 / Foot Pinch Test Results Round 3 / Foot Pinch Test Results Round 4 / Foot Pinch Test Results Round 5 / Foot Pinch Test Results Round 6: individual animal; for Foot Pinch Test Results Round 1: single SQ 1.33 mL/kg into left hind foot (spinosad 12 mg/kg; Lidocaine 2% solution, 26.6 mg/kg); for Foot Pinch Test Results Round 2 / Foot Pinch Test Results Round 3 / Foot Pinch Test Results Round 4 / Foot Pinch Test Results Round 5 / Foot Pinch Test Results Round 6: single SQ 1.33 mL/kg (spinosad 12 mg/kg; Lidocaine 26.6 mg/kg)
Experimental: Positive control: Lidocaine (Manufacturer: VetTek), as a Lidocaine Hydrochloride (2% solution or approx. 74 mM)
Assay: Pain response testing-foot pinch
Animals used: male Sprague-Dawley rats
Experimental set-up. The test article was administered as follows:
Approximately 1.33 mL/kg spinosad solution was administered once, subcutaneously at 12 mg/kg (9 mg/mL, 1.33 mL/kg) into the left hind foot of each rat in the treatment group (Group 3), positive control group (Group 2, Lidocaine, 1.33 mL/kg), and control vehicle group (Group 1, DMSO, 1.33 mL/kg).
Beginning approximately 45 minutes post-dose all animals were subjected to pain response testing, foot pinch test. The test was conducted on each rat, in order, and then repeated on each, 5 more times (6 rounds of testing) through 4 hours post-dose. The foot pinch test measured the rodent's tolerance of pressure on their foot. The rat was removed from its cage and the treated foot was pinched. Whether or not the rodent's foot responded to the pinch was documented. The treatment group averages were compared to positive and negative control group averages (Table 3 and FIG. 1).
Six total rounds of foot pinch-pain response testing were conducted at approximately 45, 70, 90, 120, 150, and 240 minutes post-dose. Time of dosing and pain testing results were recorded for each animal.

[2] = test system: male Sprague-Dawley rats; assay: Foot pinch test, duration of action and reversible effects (Example 2); assay type: in vivo; settings: for Foot Pinch Test average per animal, round 1 / Foot Pinch Test average per animal, round 2 / Foot Pinch Test average per animal, round 3 / Foot Pinch Test average per animal, round 4 / Foot Pinch Test average per animal, round 5: group average; for Foot Pinch Test average per animal, round 1 / Foot Pinch Test Results Round 1: 1 hour post dose; for Foot Pinch Test average per animal, round 2 / Foot Pinch Test Results Round 2: 4 hours post dose; for Foot Pinch Test average per animal, round 3 / Foot Pinch Test Results Round 3: 6 hours post dose; for Foot Pinch Test average per animal, round 4 / Foot Pinch Test Results Round 4: 8 hours post dose; for Foot Pinch Test average per animal, round 5 / Foot Pinch Test Results Round 5: 24 hours post dose; for Foot Pinch Test Results Round 2 / Foot Pinch Test Results Round 3 / Foot Pinch Test Results Round 4 / Foot Pinch Test Results Round 5 / Foot Pinch Test Results Round 1: individual animal
Experimental: This test was conducted to establish spinosad's reversible local anesthetic effects and confirm the prolonged effect. The same assay as in example 1 was used.
Test article: spinosad in DMSO 9 mg/ml, administered in two doses; high dose 9 mg/kg and low dose 4.5 mg/kg.
The treatment group averages were compared to positive and negative control group averages (Table 6 and FIG. 2).

[3] = target: cloned hERG potassium channels (Homo sapiens, UniProt Q12809)
Experimental: Rational for Ion channel selection: Inhibition of hERG (IKr) channels closely predicts the cardiac action potential prolongation. […] This stable expressed hERG cell line is widely used for hERG testing. The percentage inhibition of spinosad on human-ERG currents were evaluated from the gold standard manual patch clamp studies.
Test sample: spinosad (Supplier:Sigma-Aldrich/Fluka), in DMSO 9 mg/ml (0.8% w/w or approx. 12 mM)
Positive control: Terfenadine (Supplier: Sigma-Aldrich), in DMSO at a concentration of 1 mM.
All the final solutions contained no more than 0.3% DMSO.
Assay: Electrophysiology recording: Micropipette was pulled from borosilicate glass with the pipette tip resistance between 3-5 MΩ. For each experiment, a single dish of cells is removed from the incubator, washed twice with room temperature ECS and then placed on the microscope stage. A commercial patch clamp amplifier was used for the whole cell recordings.
Voltage protocol and current recording: The tail currents were evoked at room temperature once every 30 s by a 3 s −50 mV repolarizing pulse following a 2 s+50 mV depolarizing pulse with a hold voltage of −80 mV. A 50 ms depolarized pulse to −50 mV at the beginning of the voltage protocol served as a baseline for calculating the amplitude of the peak tail current. Only stable cells with recording parameters above threshold were allowed to enter the drug application procedure. The hERG currents were allowed to stabilize over a 3 minutes period in the presence of a vehicle alone prior to the application of spinosad. The cells were kept in the test solution until the peak tail current was stable (<5% change) for about 5 sweeps or for a maximum of 6 min, whichever came first.
Acceptance criteria for measurements: 1. Whole-cell membrane resistance (Rm) was greater than 1000 MΩ throughout the experiment. 2. Initial current was greater than 300 pA. 3. Series resistance value following establishment of whole-cell mode was less than 12 MΩ. 4. The leak current that the cell began with or developed over time was less than 10% of the ionic current magnitude (up to a maximum of 80 pA).

[4] = no value or species printed; cited from earlier work

Chain of cloned hERG potassium channels (Q12809 whole entry): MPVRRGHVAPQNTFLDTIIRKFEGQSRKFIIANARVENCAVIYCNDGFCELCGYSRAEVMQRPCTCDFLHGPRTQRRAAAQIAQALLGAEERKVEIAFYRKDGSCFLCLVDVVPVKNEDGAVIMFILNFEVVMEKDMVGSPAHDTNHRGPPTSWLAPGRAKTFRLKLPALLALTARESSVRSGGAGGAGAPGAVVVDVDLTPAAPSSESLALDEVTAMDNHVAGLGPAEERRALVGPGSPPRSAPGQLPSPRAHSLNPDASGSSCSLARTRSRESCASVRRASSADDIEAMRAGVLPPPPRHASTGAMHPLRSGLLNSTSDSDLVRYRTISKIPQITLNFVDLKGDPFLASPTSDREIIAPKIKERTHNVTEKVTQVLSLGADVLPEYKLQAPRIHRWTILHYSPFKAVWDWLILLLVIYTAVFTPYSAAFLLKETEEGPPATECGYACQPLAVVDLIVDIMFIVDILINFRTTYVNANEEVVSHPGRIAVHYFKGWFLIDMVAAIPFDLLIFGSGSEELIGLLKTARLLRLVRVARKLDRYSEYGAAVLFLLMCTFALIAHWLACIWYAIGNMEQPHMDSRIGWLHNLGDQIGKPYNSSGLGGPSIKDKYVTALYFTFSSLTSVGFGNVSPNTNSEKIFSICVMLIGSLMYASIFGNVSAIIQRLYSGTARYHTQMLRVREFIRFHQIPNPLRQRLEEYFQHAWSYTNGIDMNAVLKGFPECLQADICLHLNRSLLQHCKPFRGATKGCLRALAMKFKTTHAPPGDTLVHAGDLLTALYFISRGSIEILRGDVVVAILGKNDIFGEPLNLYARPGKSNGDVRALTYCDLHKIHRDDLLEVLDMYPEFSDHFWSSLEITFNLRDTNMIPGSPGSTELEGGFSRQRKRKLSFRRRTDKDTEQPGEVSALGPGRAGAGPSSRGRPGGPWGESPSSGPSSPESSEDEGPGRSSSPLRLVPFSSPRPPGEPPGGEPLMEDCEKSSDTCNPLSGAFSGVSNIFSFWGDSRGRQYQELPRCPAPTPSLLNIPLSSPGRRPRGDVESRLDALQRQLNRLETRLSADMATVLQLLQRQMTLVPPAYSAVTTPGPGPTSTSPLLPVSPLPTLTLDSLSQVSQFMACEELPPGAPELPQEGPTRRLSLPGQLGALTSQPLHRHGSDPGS

CCN(CC)CC(=O)Nc1c(C)cccc1C [Lidocaine, Lidocaine Hydrochloride]
Time by which localized anesthetic effect resolved ([1]; Lidocaine group, 1.33 mL/kg SQ, post-dose): ~70 min
Foot Pinch Test average per animal, round 1 [1]: 0.00
Foot Pinch Test average per animal, round 2 [1]: 0.67
Foot Pinch Test average per animal, round 3 [1]: 1.00
Foot Pinch Test average per animal, round 4 [1]: 1.00
Foot Pinch Test average per animal, round 5 [1]: 1.00
Foot Pinch Test average per animal, round 6 [1]: 1.00
Foot Pinch Test Results Round 1 [1]: 0.00
Foot Pinch Test Results Round 2 ([1]; Hydrochloride): 1.00 (4×) and 0.00 (2×)
Foot Pinch Test Results Round 3 [1]: 1.00
Foot Pinch Test Results Round 4 [1]: 1.00
Foot Pinch Test Results Round 5 [1]: 1.00
Foot Pinch Test Results Round 6 [1]: 1.00

spinosad
Foot Pinch Test average per animal, round 1 ([2]; 4.5 mg/kg SQ): 0.50
Foot Pinch Test average per animal, round 2 ([2]; 4.5 mg/kg SQ): 0.83
Foot Pinch Test average per animal, round 3 ([2]; 4.5 mg/kg SQ): 1.00
Foot Pinch Test average per animal, round 4 ([2]; 4.5 mg/kg SQ): 1.00
Foot Pinch Test average per animal, round 5 ([2]; 4.5 mg/kg SQ): 1.00
Foot Pinch Test average per animal, round 1 ([2]; 9.0 mg/kg SQ): 0.00
Foot Pinch Test average per animal, round 2 ([2]; 9.0 mg/kg SQ): 0.17
Foot Pinch Test average per animal, round 3 ([2]; 9.0 mg/kg SQ): 0.50
Foot Pinch Test average per animal, round 4 ([2]; 9.0 mg/kg SQ): 0.50
Foot Pinch Test average per animal, round 5 ([2]; 9.0 mg/kg SQ): 1.00
Foot Pinch Test Results Round 2 ([2]; 4.5 mg/kg SQ, 4.5 mg/kg): 1.00 (5×) and 0.00
Foot Pinch Test Results Round 3 ([2]; 4.5 mg/kg SQ): 1.00
Foot Pinch Test Results Round 4 ([2]; 4.5 mg/kg SQ): 1.00
Foot Pinch Test Results Round 5 ([2]; 4.5 mg/kg SQ): 1.00
Foot Pinch Test Results Round 2 ([2]; 9.0 mg/kg SQ, 9 mg/kg): 0.00 (5×) and 1.00
Foot Pinch Test Results Round 3 ([2]; 9.0 mg/kg SQ, 9 mg/kg): 0.00 (3×) and 1.00 (3×)
Foot Pinch Test Results Round 4 ([2]; 9.0 mg/kg SQ, 9 mg/kg): 0.00 (3×) and 1.00 (3×)
Foot Pinch Test Results Round 5 ([2]; 9.0 mg/kg SQ): 1.00
Foot Pinch Test Results Round 1 ([2]; spinosad high dose 9.0 mg/kg SQ foot pad): 0.00
Foot Pinch Test Results Round 1 ([2]; spinosad low dose 4.5 mg/kg SQ foot pad, 4.5 mg/kg): 1.00 (3×) and 0.00 (3×)
Duration of local anesthetic effect ([2]; single SQ dose 4.5 mg/kg): lasted during the first hour of study only
Duration of local anesthetic effect (remained unresolved) ([2]; single SQ dose 9 mg/kg): 6 to 8 h
Reversibility of local anesthetic effect ([2]; single SQ dose 9 mg/kg): fully reversible at 24 hours
Tolerability ([2]; single subcutaneous dose into the footpad at 9 mg/kg): well tolerated
% Block Cell #2 ([3]; 1.35 μM): 3.5%
% Block Cell #3 ([3]; 1.35 μM): 0.6%
Average Inhibition (%) of hERG currents ([3]; 1.35 μM): 7.2±8.9%
% Block Cell #1 ([3]; 1.35 μM, hERG tail current, room temperature): 17.3%
% Block Cell #1 ([3]; 4.50 μM): 26.9%
% Block Cell #2 ([3]; 4.50 μM): 19.2%
% Block Cell #3 ([3]; 4.50 μM): 19.4%
Average Inhibition (%) of hERG currents ([3]; 4.50 μM): 21.8±4.4%
% Block Cell #1 ([3]; 13.50 μM): 30.3%
% Block Cell #2 ([3]; 13.50 μM): 48.4%
% Block Cell #3 ([3]; 13.50 μM): 47.7%
% Block Cell #4 ([3]; 13.50 μM): 40.2%
Average Inhibition (%) of hERG currents ([3]; 13.50 μM): 41.7±8.4%
% Block Cell #2 ([3]; 36.00 μM): 77.5%
% Block Cell #3 ([3]; 36.00 μM): 84.1%
% Block Cell #4 ([3]; 36.00 μM): 73.2%
Average Inhibition (%) of hERG currents ([3]; 36.00 μM): 78.3±5.5%
Reversibility of blocking on hERG current ([3]; saline wash): reversible after one minute of saline wash
Concentration dependence of hERG current inhibition ([3]; whole cell recordings, HEK293-hERG stable cell line): inhibited hERG currents in a concentration-dependent manner
Foot Pinch Test average per animal, round 1 [1]: 0.00
Foot Pinch Test average per animal, round 2 [1]: 0.00
Foot Pinch Test average per animal, round 3 [1]: 0.17
Foot Pinch Test average per animal, round 4 [1]: 0.17
Foot Pinch Test average per animal, round 5 [1]: 0.33
Foot Pinch Test average per animal, round 6 [1]: 0.50
Foot Pinch Test Results Round 1 [1]: 0.00
Foot Pinch Test Results Round 2 [1]: 0.00
Foot Pinch Test Results Round 3 [1]: 0.00 (5×) and 1.00
Foot Pinch Test Results Round 4 [1]: 0.00 (5×) and 1.00
Foot Pinch Test Results Round 5 [1]: 0.00 (4×) and 1.00 (2×)
Foot Pinch Test Results Round 6 [1]: 0.00 (3×) and 1.00 (3×)
Duration of local anesthetic effect (remained unresolved) ([1]; single SQ dose 12 mg/kg, study duration 4 hours): ≥ 4 h
Tolerability ([1]; single subcutaneous dose into the footpad at 12 mg/kg): well tolerated
LD50 relative to lidocaine [4]: much higher LD50 than lidocaine
